Laboratory results from patent publication US20260159500A1, “KINESIN KIF18A INHIBITOR AND USE THEREOF” (SHANGHAI APEIRON THERAPEUTICS COMPANY LIMITED, priority 2022, published 2026).

What was measured:
[1] = system: OVCAR3 cells; assay: Cell proliferation activity test in OVCAR3 cells (CyQUANT Direct); format: cell-based; conditions: Homo sapiens, OVCAR-3, 72 h, 3 days incubation, CyQUANT fluorescence detection, read-out: OVCAR-3_IC50_nM
Method: OVCAR3 cells were purchased from Nanjing Cobioer Biosciences Co., Ltd. RPMI-1640 medium, fetal bovine serum, and the CyQUANT Direct Cell Proliferation Assay kit were purchased from Thermo Fisher Scientific, USA; 96-well cell culture plates were sourced from Corning, USA.
Culture OVCAR3 cells with RPMI-1640 medium containing 10% fetal bovine serum and incubate them in a 5% CO2 incubator at 37° C. Only cells in the logarithmic growth phase can be used for the test.
Inoculate OVCAR3 cells into a 96-well cell culture plate at 90 μL per well and incubate overnight in a 5% CO2 incubator at 37° C. Dissolve the compound powder in DMSO to prepare a stock solution of 10 mM. Then perform gradient dilution for the compounds in the microplate to achieve a final concentration of 0-10 μM. Add 10 μL of cell culture medium containing compounds to each well to make the final DMSO content 0.2%. Incubate the cell plates in a 5% CO2 incubator at 37° C. for 3 days. Add 100 μL of CyQUANT detection reagent to each well, react at 37° C. for 60 min, and perform fluorescence detection using the PerkinElmer Envision.

[2] = target: T1, Human KIF18A (amino acid sequence 1-417) (Homo sapiens, UniProt Q8NI77); assay: Enzymatic activity test (ADP-Glo, microtubule-stimulated KIF18A ATPase); format: biochemical; conditions: 60 μg/mL microtubules, 25 μM ATP, 2.5 nM KIF18A protein, 120 min at ambient temperature, read-out: KIF18A_nM
T1 construct: purchased Viva Biotech (Shanghai) Ltd
T1 sequence (Q8NI77 1-417): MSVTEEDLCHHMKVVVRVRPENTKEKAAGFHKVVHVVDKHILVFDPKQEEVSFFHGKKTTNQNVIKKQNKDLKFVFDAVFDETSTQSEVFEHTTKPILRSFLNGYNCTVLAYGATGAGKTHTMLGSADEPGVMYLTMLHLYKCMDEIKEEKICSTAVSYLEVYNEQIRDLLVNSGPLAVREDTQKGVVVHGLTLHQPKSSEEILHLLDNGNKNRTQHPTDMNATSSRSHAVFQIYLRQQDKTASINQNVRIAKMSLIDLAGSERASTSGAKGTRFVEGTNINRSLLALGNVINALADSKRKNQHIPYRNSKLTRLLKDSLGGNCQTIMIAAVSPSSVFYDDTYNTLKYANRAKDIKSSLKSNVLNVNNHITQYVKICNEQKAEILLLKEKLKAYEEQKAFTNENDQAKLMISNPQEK
Method: Human KIF18A (amino acid sequence 1-417) was purchased from Viva Biotech (Shanghai) Ltd.; the ADP-Glo™ protein kinase kit was acquired from Promega, USA; tubulin was sourced from Cytoskeleton, USA; and the 384-well assay plate and Envision multifunctional microplate reader were obtained from PerkinElmer, USA.
Dissolve the compound powder in DMSO to prepare a stock solution of 10 mM. Then perform gradient dilution for the compounds in the microplate to achieve a final concentration of 0-10 μM. Then, add 2.5 μL each of tubulin, compound, ATP, and KIF18A protein to the microplate in sequence for reaction at ambient temperature for 120 min. The final concentrations in the enzyme reaction are 60 μg/mL for microtubules, 25 μM for ATP, and 2.5 nM for KIF18A protein. After the enzyme reaction, add 10 μL of ADP-GLO reaction reagent to each well and incubate at ambient temperature for 30 min. After that, add 20 μL of detection reagent to each well and incubate at ambient temperature for 30 min in the dark. Finally, perform chemiluminescence detection using the PerkinElmer Envision.

[3] = system: HT29 cells; assay: CyQuant cell proliferation activity test in HT29 cells; format: cell-based; conditions: Homo sapiens, HT-29, 72 h, 2000 cells per well, 3 days incubation, IC50 by XLFIT, read-out: HT29_IC50_nM
Method: HT29 cells were purchased from Nanjing Cobioer Biosciences Co., Ltd.; RPMI-1640 medium, fetal bovine serum, Trypsin-EDTA (0.25%), 96-well plates, and CyQuant reagents were purchased from ThermoFisher (USA); DMSO was purchased from SIGMA (USA).
Culture HT29 cells with RPMI-1640 containing 10% fetal bovine serum under the condition of 37° C. and 5% CO2. Only cells in the logarithmic growth phase can be used for the test.
Use the CyQuant reagent to detect the proliferation inhibitory activity of compounds on HT29 cells. Adjust the cell density and inoculate 100 μL per well into the 96-well plate (HT29 at 2000 cells per well), then incubate overnight under the condition of 37° C. and 5% CO2. Add compounds of various target concentrations (initial concentration of 3000 nM, 3-fold dilution, 9 concentration gradients), and make the DMSO content 0.2%. Incubate the cell plates at 37° C. and 5% CO2 for 3 days. Incubate with CyQuant reagent for 1 h, read the plate by Envision, and calculate IC50 using XLFIT.

| Compound | IC50 [1] | IC50 [2] | IC50 [3] |
| --- | --- | --- | --- |
| O=C(Nc1nc2c(c(N3CCC(F)(F)CC3)n1)COC2)c1ccc(NS(=O)(=O)CCO)cc1N1CCC2(CC1)CC2 [Example 4, N-(4-(4,4-difluoropiperidin-1-yl)-5,7-dihydrofuro[3,4-d]pyrimidin-2-yl)-4-(2-hydroxyethylsulfonamido)-2-(6-azaspiro[2.5]octan-6-yl)benzamide] | 1350 nM | 29 nM | 2020 nM |
| O=C(Nc1nc2c(c(N3CCC(F)(F)CC3)n1)CNC2)c1ccc(NS(=O)(=O)CCO)cc1N1CCC2(CC1)CC2 [Example 7, N-(4-(4,4-difluoropiperidin-1-yl)-6,7-dihydro-5H-pyrrolo[3,4-d]pyrimidin-2-yl)-4-(2-hydroxyethylsulfonamido)-2-(6-azaspiro[2.5]octan-6-yl)benzamide] | > 10000 nM | 100 nM | > 10000 nM |
| CN1Cc2nc(NC(=O)c3ccc(NS(=O)(=O)CCO)cc3N3CCC4(CC3)CC4)nc(N3CCC(F)(F)CC3)c2C1 [Example 8, N-(4-(4,4-difluoropiperidin-1-yl)-6-methyl-6,7-dihydro-5H-pyrrolo[3,4-d]pyrimidin-2-yl)-4-(2-hydroxyethylsulfonamido)-2-(6-azaspiro[2.5]octan-6-yl)benzamide] | > 3000 nM | 280 nM | > 3000 nM |
| CC1OCc2c1cc(NC(=O)c1ccc(NS(=O)(=O)CCO)cc1N1CCC3(CC1)CC3)nc2N1CCC(F)(F)CC1 (centres unmarked) [Example 9, N-(4-(4,4-difluoropiperidin-1-yl)-1-methyl-1,3-dihydrofuro[3,4-c]pyridin-6-yl)-4-((2-hydroxyethyl)sulfonamido)-2-(6-azaspiro[2.5]octan-6-yl)benzamide] | 55 nM | 49 nM | 37 nM |
| CCC1(C)OCc2c1cc(NC(=O)c1ccc(NS(=O)(=O)CCO)cc1N1CCC3(CC1)CC3)nc2N1CCC(F)(F)CC1 (centres unmarked) [Example 10, N-(4-(4,4-difluoropiperidin-1-yl)-1-ethyl-1-methyl-1,3-dihydrofuro[3,4-c]pyridin-6-yl)-4-(2-hydroxyethylsulfonamido)-2-(6-azaspiro[2.5]octan-6-yl)benzamide] | 614 nM | 2750 nM | 1270 nM |
| O=C(Nc1cn2cccc2c(N2CCC(F)(F)CC2)n1)c1ccc(NS(=O)(=O)CCO)cc1N1CCC2(CC1)CC2 [Example 11, N-(1-(4,4-difluoropiperidin-1-yl)pyrrolo[1,2-a]pyrazin-3-yl)-4-(2-hydroxyethylsulfonamido)-2-(6-azaspiro[2.5]octan-6-yl)benzamide] | 28 nM | 191 nM | 28 nM |
| O=C(Nc1cc(N2CCC(F)(F)CC2)c2nccn2c1)c1ccc(NS(=O)(=O)CCO)cc1N1CCC2(CC1)CC2 [Example 14, N-(8-(4,4-difluoropiperidin-1-yl)imidazo[1,2-a]pyridin-6-yl)-4-((2-hydroxyethyl)sulfonamido)-2-(6-azaspiro[2.5]oct-6-yl)benzamide] | 9 nM | 32 nM | 17 nM |
| Cc1nc2c(N3CCC(F)(F)CC3)nc(NC(=O)c3ccc(NS(=O)(=O)CCO)cc3N3CCC4(CC3)CC4)cn2c1C [Example 15] | 71 nM | 205 nM | 97 nM |
| O=C(Nc1cc(N2CCC(F)(F)CC2)c2ncnn2c1)c1ccc(NS(=O)(=O)CCO)cc1N1CCC2(CC1)CC2 [Example 18] | 16 nM | 12 nM | 35 nM |
| O=C(Nc1cn2cnnc2c(N2CCC(F)(F)CC2)n1)c1ccc(NS(=O)(=O)CCO)cc1N1CCC2(CC1)CC2 [Example 19, N-(8-(4,4-difluoropiperidin-1-yl)-[1,2,4]triazolo[4,3-a]pyrazin-6-yl)-4-((2-hydroxyethyl)sulfonamido)-2-(6-azaspiro[2.5]oct-6-yl)benzamide] | 18 nM | 13 nM | 28 nM |
| O=C(Nc1cc2cccn2c(N2CCC(F)(F)CC2)n1)c1ccc(NS(=O)(=O)CCO)cc1N1CCC2(CC1)CC2 [Example 20, N-(1-(4,4-difluoropiperidin-1-yl)pyrrolo[1,2-c]pyrimidin-3-yl)-4-(2-hydroxyethylsulfonamido)-2-(6-azaspiro[2.5]octan-6-yl)benzamide] | 18 nM | – | 23 nM |
| Cc1nnc2cc(NC(=O)c3ccc(NS(=O)(=O)CCO)cc3N3CCC4(CC3)CC4)nc(N3CCC(F)(F)CC3)n12 [Example 27, N-(5-(4,4-difluoropiperidin-1-yl)-3-methyl-[1,2,4]triazolo[4,3-c]pyrimidin-7-yl)-4-(2-hydroxyethylsulfonamido)-2-(6-azaspiro[2.5]octan-6-yl)benzamide] | 23 nM | 13 nM | 33 nM |

Continued by falling IC50 [1], values first:

| IC50 [1] | IC50 [2] | IC50 [3] | Compound |
| --- | --- | --- | --- |
| 80 nM | 80 nM | 102 nM | Cc1ncc2c(N3CCC(F)(F)CC3)nc(NC(=O)c3ccc(NS(=O)(=O)CCO)cc3N3CCC4(CC3)CC4)cn12 [Example 12, N-(8-(4,4-difluoropiperidin-1-yl)-3-methylimidazo[1,5-a]pyrazin-6-yl)-4-(2-hydroxyethylsulfonamido)-2-(6-azaspiro[2.5]octan-6-yl)benzamide] |
| 46 nM | 5 nM | 84 nM | O=C(Nc1cc2ncnn2c(N2CCC(F)(F)CC2)n1)c1cc(F)c(NS(=O)(=O)CCO)cc1N1CCC2(CC1)CC2 [Example 25, (2-(6-azaspiro[2.5]oct-6-yl)-5-fluoro-4-{[(2-hydroxyethyl)sulphonyl]amino}phenyl)-N-[5-(4,4-difluoropiperidinyl)(4-hydro-1,2,4-triazolo[4,3-e]pyrimidin-7-yl)]formamide] |
| 33 nM | 29 nM | 56 nM | O=C(Nc1cn2ncnc2c(N2CCC(F)(F)CC2)n1)c1ccc(NS(=O)(=O)CCO)cc1N1CCC2(CC1)CC2 [Example 16] |
| 20 nM | 28 nM | 30 nM | O=C(Nc1cn2nccc2c(N2CCC(F)(F)CC2)n1)c1ccc(NS(=O)(=O)CCO)cc1N1CCC2(CC1)CC2 [Example 17] |
| 9 nM | 27 nM | 13 nM | O=C(Nc1cn2ccnc2c(N2CCC(F)(F)CC2)n1)c1ccc(NS(=O)(=O)CCO)cc1N1CCC2(CC1)CC2 [Example 13, N-(8-(4,4-difluoropiperidin-1-yl)imidazolo[1,2-a]pyrazin-6-yl)-4-((2-hydroxyethyl)sulfonamide)-2-(6-azaspiro[2.5]octan-6-yl)benzamide] |
| 6 nM | 28 nM | 7 nM | O=C(Nc1cc2c(c(N3CCC(F)(F)CC3)n1)COC2)c1ccc(NS(=O)(=O)CCO)cc1N1CCC2(CC1)CC2 [Example 5, N-(4-(4,4-difluoropiperidin-1-yl)-1,3-dihydrofuro[3,4-c]pyridin-6-yl)-4-(2-hydroxyethylsulfonamido)-2-(6-azaspiro[2.5]octan-6-yl)benzamide] |
